From a melting point compilation (Tetko et al.; mined from patent text by program, amines drawn as free bases though some values may be those of a salt) come the findings set out here.

For orientation: melting point means the temperature, or range, at which the solid turns liquid.

`Cc1nc(-c2ccccc2C(F)(F)F)c(CC(Cl)C(=O)O)o1` (configuration not stated) had a melting point of 158 to 159 °C.
As to `O=C1Nc2ccccc2C1C(=O)c1cccnc1` (configuration not stated), the melting point lay within 169 to 170 °C.
Then `CC(Br)=C(Br)CC(O)(Cn1cncn1)C1(Cl)CC1` (configuration not stated), with 55 to 56 °C; and `CCCCCCC(=O)c1cn(CCCC(=O)O)c2ccccc12`, with 58 to 60 °C; and `CCOC(=O)c1cc(C#N)c(Cl)cc1OC`, with 102 to 103 °C.
Then `COc1cc(OC)c2c(c1)c(C(=O)C(=O)NC1=CC(=O)OC1)cn2Cc1ccc(Cl)cc1`, with 280 to 282 °C.
Next, `NC(Cc1c[nH]c2c(F)cccc12)C(=O)O` (configuration not stated): 256 to 261 °C; `COc1cc(-c2csc(-n3c(C)ccc3C)n2)c(OC)cc1C`: 92 to 93 °C; `COc1ccc(SCc2oc(=O)oc2C)cc1`: 59 to 61 °C.
Consider `Cc1ccc(S(=O)(=O)N(C)NC(=O)c2c(F)cccc2Cl)cc1`, for which the melting point was 135 to 136 °C.
Then `Cn1nc(Oc2ccc(Cl)c(O)c2)c(Cl)c1C(F)(F)F`, with 106 to 108 °C; and `C=Cn1cc(C(=O)O)c(=O)c2cc(F)c(N3CCN(C(=O)OCC)CC3)nc21`, with 246 to 248 °C.
Then `CCOC(=O)C(C)(C)c1ccc(NC(C)=O)cc1`, with 76 to 76.5 °C; and `CCOC(=O)C1(O)CC(c2ccncc2)=NNC1=O` (configuration not stated), with 160 to 163 °C; and `CCCCOC(=O)C1Oc2ccccc2Cc2ccccc2O1`, with 63 to 66 °C.
In turn, `O=c1[nH]c2c(c3nc(-c4ccccc4F)nn13)CCCCC2` yielded a melting point of 257 to 259 °C.
Then `O=[N+]([O-])/C=C/c1c2n(c3ccccc13)CCNCC2`, with 225 to 226 °C.
Next, `COCc1cc(-c2nnc3c4ccccc4c(OCc4ncn(C)n4)nn23)no1`: 236 °C.
As for `CCNC(=O)Oc1ccc(-c2nn(C3CCCC3)c3c(F)cccc23)cc1`, the melting point fell in the range of 159 to 160 °C.
Then `CCOC(=O)c1nsc(=O)o1`, with 49 °C; and `NC(c1ccncc1)C1CCN(C2CCC(O)(CC(=O)O)CC2)CC1` (configuration not stated), with 266 °C.
Next, `CN(C)S(=O)(=O)Nc1ccc2[nH]cc(CC#N)c2c1`: 147 to 150 °C; `O=C(NCCc1nnn[nH]1)C(CS)C(F)(F)F` (configuration not stated): 182 to 184 °C.
Compound `CCOC(=O)C=Cc1cc([N+](=O)[O-])cc2c1CCCC2` had a melting point of 95 to 96 °C.
Then `O=C(C=Cc1ccccc1C(F)(F)F)C=Cc1ccccc1C(F)(F)F`, with 131 to 133 °C; and `COC(=O)C(=O)c1ccc(OCCCOc2ccccc2)cc1`, with 61 to 62 °C; and `O=C1CCC(N2Cc3c(OCc4ccc(C(F)(F)F)cc4)cccc3C2=O)C(=O)N1` (configuration not stated), with 241 to 243 °C.
Take `CN1C(=O)C=C(c2ccccc2)C1(C)O` (configuration not stated): the melting point was 148 to 152 °C.
Next, `Cc1oc2c(NC(=O)c3c(Cl)cccc3Cl)cccc2c1CC1CCCCC1`: 189 to 190 °C; `O=C(Nc1ccc(CCN2C(=O)[C@H]3CCC[C@H]3N(C(=O)CN3C(=O)c4ccccc4C3=O)c3ccccc32)cc1)OCc1ccccc1` (relative stereo): 152 to 154 °C.
Next, `Cc1cc(C(=O)Cl)ccc1[N+](=O)[O-]`: 29 to 30 °C; `CCOC(=O)c1cccc(NC(=O)C(COS(C)(=O)=O)NS(=O)(=O)c2ccc(Cl)cc2)c1` (racemic): 125 to 129 °C.
Next, `NC(=S)Cc1cccc(Oc2ccccc2)c1O`: 70 °C.
Regarding `COc1ccc(C=CC(=O)C=Cc2ccccc2)cc1`, the melting point is 85 to 89 °C.
Then `CC1(C)COP(=O)(OC(C#N)c2cccc(Oc3ccccc3)c2)OC1` (configuration not stated), with 140 °C; and `ClCCc1nnc2ccccc2c1Cl`, with 81 to 82 °C.
Next, `CC1(C)C(=O)N(c2ccc(C#N)c(C(F)(F)F)c2)C(=O)N1CCCO`: 131 to 132 °C.
